Key:
HK2 cells = test: Lactate dehydrogenase (LDH) release assay; type: cell-based; conditions: 48 h
Procedure: HK2 cells were cultured in low glucose (5 mM) for 48 h, prior to being serum-starved overnight and subsequently treated with TGFβ1 (10 ng/mL)±danegaptide (50 nM-1 μM) for 48 h (FIG. 1A, n=3).
The release of lactate dehydrogenase (LDH) into media as a result of plasma membrane damage is commonly used to evaluate cell death or cytotoxicity. HK2 cells were seeded in 96-well plates and cultured in low glucose DMEM/F12 (5 mM) for 48 h, prior to overnight serum-starvation. Cells were then stimulated for 48 h with TGFβ1 (10 ng/ml)±danegaptide (50-1000 nM). The LDH-cytotoxicity assay kit II (Abcam) was used to quantify LDH according to the manufacturer's instructions.

Cx43 hemichannels [1] = target: T1, Cx43 hemichannels (Homo sapiens, UniProt P17302); test: Carboxyfluorescein dye uptake assay in HK2 cells; type: cell-based; conditions: for carboxyfluorescein dye uptake, of control: 48 h
T1 construct: host or cells: HK2 human kidney proximal tubule epithelial cell line
T1 sequence (P17302 whole entry): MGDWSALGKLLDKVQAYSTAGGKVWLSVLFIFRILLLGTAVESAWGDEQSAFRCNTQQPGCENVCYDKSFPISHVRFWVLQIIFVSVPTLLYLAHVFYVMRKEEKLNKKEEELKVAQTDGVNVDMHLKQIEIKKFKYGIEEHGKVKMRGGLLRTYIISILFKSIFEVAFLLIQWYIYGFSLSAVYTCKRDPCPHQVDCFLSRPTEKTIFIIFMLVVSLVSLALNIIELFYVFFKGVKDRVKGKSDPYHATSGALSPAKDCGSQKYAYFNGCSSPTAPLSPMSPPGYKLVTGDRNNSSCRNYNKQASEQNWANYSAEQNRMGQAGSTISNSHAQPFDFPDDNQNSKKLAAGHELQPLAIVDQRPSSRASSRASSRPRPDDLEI
Procedure: (§1) In panel A, HK2 cells were cultured in low glucose (5 mM) with/without TGFβ1 (10 ng/ml)±danegaptide (50, 100 and 1000 nM) for 48 h and cell viability assessed. Results are presented as mean±SEM, n=3. […] Addition of danegaptide (50 or 100 nM) reduced dye uptake, returning fluorescence intensity to control levels. Intensity is expressed as percentage compared to low glucose control and is representative of 3 separate experiments. Data is presented as mean±SEM, n=3 with key significances indicated (**P<0.01, ***P<0.001); one-way ANOVA and Tukey's post-test).
HK2 and HPTEC cells were seeded onto fluorodishes (22 mm diameter) and cultured in low glucose DMEM/F12 (5 mmol/1) for 48 h. Following an overnight serum-starvation, cells were incubated with TGFβ1 (10 ng/ml)±danegaptide (100 nM) for 48 h. For subsequent steps, a balanced salt solution (BSS, pH7.0) was used, comprising of NaCl (137 mM), KCl (5.4 mM), MgSO4 (0.8 mM), Na2HPO4 (0.3 mM), KH2PO4 (0.4 mM), NaHCO3 (4.2 mM), HEPES (10 mM) and glucose (5 mM). To induce dye uptake, cells were exposed to Ca^2+-free BSS (zero CaCl2+EGTA (1 mM)) plus carboxyfluorescein (200 μM) for 10 min, followed by a 10 min period in Ca^2+-containing BSS (1.3 mM) plus carboxyfluorescein (200 μM). Dishes were subsequently washed with Ca^2+-containing BSS (12 mls). Images were acquired with a Cool Snap HQ CCD camera (Roper Scientific) and Metamorph software (Universal Imaging Corp., Marlow, Bucks, UK). ImageJ was used to quantify dye uptake, where a region of interest (ROI) was drawn around each cell (approx. 10-15 cells/dish) and mean pixel intensity measured. A background fluorescence value was subtracted from each ROI.

Cx43 hemichannels [2] = target: T1, Cx43 hemichannels; test: Carboxyfluorescein dye uptake assay in primary hPTECs; type: cell-based; conditions: 48 h
Procedure: as §1
HK2 and HPTEC cells were seeded onto fluorodishes (22 mm diameter) and cultured in low glucose DMEM/F12 (5 mmol/1) for 48 h. Following an overnight serum-starvation, cells were incubated with TGFβ1 (10 ng/ml)±danegaptide (100 nM) for 48 h. For subsequent steps, a balanced salt solution (BSS, pH7.0) was used, comprising of NaCl (137 mM), KCl (5.4 mM), MgSO4 (0.8 mM), Na2HPO4 (0.3 mM), KH2PO4 (0.4 mM), NaHCO3 (4.2 mM), HEPES (10 mM) and glucose (5 mM). […] ImageJ was used to quantify dye uptake, where a region of interest (ROI) was drawn around each cell (approx. 10-15 cells/dish) and mean pixel intensity measured. A background fluorescence value was subtracted from each ROI.

primary hPTECs = test: Western blotting of adherens and tight junction proteins; type: cell-based, human; conditions: 48 h
Procedure: Primary hPTECs were cultured in low (5 mM) glucose±TGFβ1 (10 ng/mL)±danegaptide (100 nM) for 48 h. Expression of E-cadherin (ECAD), N-cadherin (NCAD) and vimentin (panel A), and Claudin-2 and Zonula Occludens (ZO-1) and b-catenin (panel B) were assessed via western blotting. TGFβ1 reduced E-cadherin, Claudin-2 and ZO-1 expression and increased N-cadherin and vimentin expression (**P<0.01, ***P<0.001; mean±SEM, n=3). Effects were partially or completely reversed by danegaptide (100 nM; ▴P<0.05 and ▴▴▴P<0.001; mean±SEM, n=3). Representative blots for each protein are shown, with expression normalised by re-probing for α-tubulin as a loading control. In panel C, transepithelial electrical resistance (TER) assessed the consequence of altered adherens & tight-junction protein expression on epithelial integrity. HK2 cells were cultured in low (5 mM) glucose on transwell inserts and transepithelial resistance measured.
To determine if danegaptide can negate TGFβ1-mediated changes in adherens and tight junction proteins, hPTECs were incubated with TGFβ1 (10 ng/mL)±danegaptide (100 nM) for 48 h and expression of candidate proteins assessed by Western blotting. Preparation of cytosolic protein from HK2 and HPTEC cells, their separation by SDS-gel electrophoresis and transfer onto Immobilon-FI PVDF membranes have been described previously (Price, G. W.; Chadjichristos, C. E.; Kavvadas, P.; Tang, S. C. W.; Yiu, W. H.; Green, C. R.; Potter, J. A.; Siamantouras, E.; Squires, P. E.; Hills, C. E. Blocking Connexin-43 mediated hemichannel activity protects against early tubular injury in experimental chronic kidney disease. Cell Commun. Signal. 2020, 18). Membranes were blocked using Odyssey blocking buffer (LI-COR), then probed overnight with antibodies against E-cadherin (1:1000), N-cadherin (1:1000), claudin-2 (1:500) and ZO-1 (1:1000), Col I (1:1000), Col IV (1:2000), Fibronectin (1:4000), Laminin (1:500), ILK1 (1:500), beta-catenin (1:2000), Vimentin (1:500), MMP3 (1:500). Bands were visualised using an OdysseyFC and semi-quantified using ImageStudio (v5.2, LI-COR). Additionally, transepithelial electrical resistance (TER) was measured as a functional measure of epithelial cell-cell coupling and paracellular permeability.

[3] = TGFβ1 10 ng/mL + danegaptide 50 nM
[4] = TGFβ1 10 ng/mL + danegaptide 100 nM

NCC(=O)N1C[C@H](NC(=O)c2ccccc2)C[C@H]1C(=O)O [danegaptide, (2S,4R)-1-(2-aminoacetyl)-4-benzamidopyrrolidine2-carboxylic acid]
LDH release compared to control (HK2 cells; [3]): 106.4±11.6%
LDH release compared to control (HK2 cells; [4]): 113.9±15.6%
LDH release compared to control (HK2 cells; TGFβ1 10 ng/mL + danegaptide 1 μM): 113.2±4.3%
LDH release compared to control (HK2 cells; danegaptide alone 50 nM): 104.4±4.3%
LDH release compared to control (HK2 cells; danegaptide alone 100 nM): 95.3±4.7%
LDH release compared to control (HK2 cells; danegaptide alone 1 μM): 92.6±3.3%
carboxyfluorescein dye uptake, of control (Cx43 hemichannels [1]; [3]): 165.5±17.9%
carboxyfluorescein dye uptake, of control (Cx43 hemichannels [1]; [4]): 147.6±18.1%
carboxyfluorescein dye uptake (Cx43 hemichannels [1]; danegaptide alone): did not alter dye uptake
concentration of optimal inhibition of carboxyfluorescein dye uptake (Cx43 hemichannels [1]; dose range 10 to 1000 nM tested): 50 to 100 nM
carboxyfluorescein dye uptake, of control (Cx43 hemichannels [2]; [4]): 145±19.7%
Claudin-2 expression, of control (primary hPTECs; [4]): 74.6±5%
E-cadherin (ECAD) expression, of control (primary hPTECs; [4]): 89±7.6%
N-cadherin (NCAD) expression, of control (primary hPTECs; [4]): 161.9±27.4%
ZO-1 expression, of control (primary hPTECs; [4]): 52.8±5.4%
vimentin expression, of control (primary hPTECs; [4]): 147.3±8.8%
Beta-catenin expression, of control (primary hPTECs; TGFβ1+danegaptide 100 nM): 151.6±16.8%

TGFβ1: Recombinant hTGFβ1 (Sigma); pro-fibrotic cytokine used to stimulate the cells [reference compound]
LDH release compared to control (HK2 cells; TGFβ1 10 ng/mL alone): 109.3±11.3%
carboxyfluorescein dye uptake, of control (Cx43 hemichannels [1]; TGFβ1 10 ng/mL alone): 354.9±32.6%
carboxyfluorescein dye uptake, of control (Cx43 hemichannels [2]; TGFβ1 10 ng/mL alone): 310.8±38.6%
Claudin-2 expression, of control (primary hPTECs; TGFβ1 10 ng/mL alone): 44.5±5%
E-cadherin (ECAD) expression, of control (primary hPTECs; TGFβ1 10 ng/mL alone): 33.3±3.3%
N-cadherin (NCAD) expression, of control (primary hPTECs; TGFβ1 10 ng/mL alone): 224.4±29.6%
ZO-1 expression, of control (primary hPTECs; TGFβ1 10 ng/mL alone): 27.8±11.3%
vimentin expression, of control (primary hPTECs; TGFβ1 10 ng/mL alone): 212.9±13%
Beta-catenin expression, of control (primary hPTECs; TGFβ1 alone): 149.2±11.2%
